Results on one compound are retold here after US9463189B2 (BPV Holdings, LLC, priority 2007, dated 2016).

The structures appear in SMILES notation. Counter-ions that a name gives are not always drawn.

The test system of one test is NASH mice. Briefly: Serum transaminases AST and ALT in HFD-induced NASH mice (clinical chemistry panel). The class given is in vivo, C57B1/6J mice. The text has this: Early Steatosis Model: C57B1/6J mice (22-39 days old) mice were used for the study. Mice were fed normal chow food (Lab Diet, 5P14Prolab Animal Diet, PMI Nutritional International, Brentwood, Mo., Cat# RMH 2500) or 58% high fat diet (HFD, 58 kcal % fat and corn starch with purple dye, Research Diets, New Brunswick, N.J., Cat# D12330 equivalent to Western diet) for 120-150 days. […] This group is referred to as the HFD-low body group in FIG. 1A (insulin & liver fat accumulation˜normal). On the other hand, one fifth of the mice gained 60-70% higher body weight (compared to normal chow fed mice) while on the same HFD diet (NASH group, very high insulin and liver fat) further shown in FIG. 1A. The majority of the mice (three fifths) gained body weight as expected on the HFD (30-40% higher than the normal chow fed mice) and is referred to as the DIO group (normal to moderately high insulin and liver fat accumulation) as shown in FIG. 1A. Control animals (n=5) representative of the HFD-low body weight and the NASH groups were sacrificed prior to starting the rest of the animals on treatment with the Compound 2 (5 or 10 mg/Kg/day). Liver, white adipose and muscle from the sacrificed mice were collected for histology performed on the liver tissue.
(§1) Following 120-150 days on the HFD, mice in the NASH group were treated with Compound 2 (5 or 10 mg/Kg/day) or vehicle (10% Encapsin) for 42 days. Fasting and post prandial (PP) blood draws were taken at the beginning of the study (compound treatment) to identify and confirm the NASH group and during the study to evaluate various pharmacological responses. Since the NASH mice are severely hyperinsulinemic compared to NC mice, glucose tolerance testing (GTT, measures peripheral insulin resistance) was performed to evaluate the effect of Compound 2 on improvement of peripheral insulin sensitivity. Treatment was administered for 42 days (separate experiments). Body weight and food intake was measured throughout the study.
Tail blood was collected into EDTA capillary tubes (Becton, Dickinson and Company, Franklin Lakes, N.J., Cat #365973). Upon sacrifice, blood was collected by cardiac puncture using a 1 mL Syringe Tuberculin Slip Tip (Becton, Dickinson & Company, Cat #309602) and B-D25G 5/8 needle (Becton Dickinson, Franklin Lakes, N.J., Cat #305122) and saved into Microtainer brand tube with EDTA (Becton, Dickinson and Company, Cat #365973). The blood was spun for 8 minutes at 8500 rpm at 4° C. (Eppendorf, Centrifuge 5415R, New York, N.Y.). Plasma was collected and stored at −20° C. for further analyses
80 μL EDTA plasma was diluted with 80 μL Dulbecco's phosphate buffered saline (Gibco, Grand Island, N.Y., Cat #14040-133) and analyzed in Olympus AU600 (Olympus, London, UK) for the following endpoints. The lower and upper limit ranges were according to the assay values provided by the JAS Diagnostics, INC (Miami, Fla.). • Glucose (LL 94-116, UL 297-353 mg/dL, Cat # JAS GLU2-125) • Triglycerides (LL 46-102, UL 128-168 mg/dL, Cat # TRI2-125) • ALT/GPT (LL 10-34, UL 64-114 U/L, Cat # JAS ALT2-125) • AST/GOT (LL 18-46, UL 121-187 U/L, Cat # JAS AST2-125) • Multi-Chemistry calibrator (Albumin: 3.9 g/dL, Cholesterol: 212 mg/dL, • Creatinine: 4.4 mg/dL, Glucose: 220 mg/dL, Triglycerides: 116 mg/dL, Cat # JAS CAL1-5) • Multi-Chemistry control level 1 (Range: See above for each constituent, Cat # JAS CON1-5) • Multi-Chemistry control level 2 (Range: See above for each constituent, Cat # JAS CON2-5)

In another test the test system is MCP-1. Description: MCP-1 in plasma and liver lysates (immunoassay). In kind it is in vivo, C57B1/6J mice. The method, then:
as §1
Insulin fasting plasma samples were tested using Mercodia ultra sensitive mouse insulin ELISA: 2.5 μL EDTA plasma, ALPCO Diagnostics, Uppsala, Sweden, Cat #08-10-1150-99, LOQ (0.22-7.1 μg/L). Mouse JE/MCP-1 post prandial samples were collected at sacrifice. 12.5 μL EDTA plasma, R & D Systems, Minneapolis, Minn., Cat # MFE00, LOQ (15.6-1000 pg/mL).

`C[C@@H]1CN(Cc2ccc(OC(F)(F)F)cc2)C[C@H](C)N1S(=O)(=O)c1cccc2c1C[C@@H](C(=O)O)C2` [Compound 2, (S)-4-[cis-2,6-Dimethyl-4-(4-trifluoromethoxy-benzyl)-piperazine-1-sulfonyl]-indan-2-carboxylic acid tosylate]: the “reduction in AST compared to the vehicle group” value with NASH mice (42 days of 5 mg/kg/day, p<0.02) came out at 43%. For the same compound, the “reduction in ALT compared to the vehicle group” value in the test on NASH mice (42 days of 5 mg/kg/day, p<0.05) was 43%. Besides, the “ALT serum level, treated group” value in the test with NASH mice (42 days of 5 mg/kg/day, vehicle 108±15, in U/L) was determined as 62±13. Besides, the “AST serum level, treated group” value with NASH mice (42 days of 5 mg/kg/day, vehicle 201±23, in U/L) is 115±19. For the same compound, the “levels of serum transaminases AST and ALT” value in the test with NASH mice (oral administration, summary) is listed as “reduced levels”. Further, the “reduction of MCP-1 levels in plasma, treated vs. untreated mice” value in the test with MCP-1 (42 days of 5 mg/kg/day, p<0.006) is reported as 34%. Besides, the “reduction of MCP-1 levels in the liver lysates, treated vs. untreated mice” value with MCP-1 (42 days of 5 mg/kg/day, trend, p=0.08) stood at 31%. In addition, the “levels of plasma MCP-1” value in the test on MCP-1 (oral administration, NASH mice, p<0.05 vs. vehicle) was “normalized levels”.
